Reference: US4765972A (priority 1986, dated 1988)
pIC50: −log10 of the molar value.

Experiments:
[1] = test system: P388 murine leukemic cells; experiment: Growth inhibition of exponentially growing P388 cells; assay type: cell-based; conditions: Mus musculus, P388, 72 h
Text: Thus, NABV is ideal for probing intracellular Vinca alkaloid interactions because it retains the known biochemical and pharmacological properties of this class of drugs.

P388 leukemic cells = experiment: Ultrastructural alterations in P388 cells; assay type: cell-based, murine
[2] = test system: MCF-7 human breast tumor cells; experiment: Ultrastructural alterations in MCF-7 cells; assay type: cell-based
tubulin [3] = experiment: Tubulin-dependent GTP hydrolysis; assay type: biochemical; conditions: both drugs at similar concentrations
tubulin [4] = experiment: Tubulin aggregation; assay type: biochemical; conditions: both drugs at similar concentrations
microtubule = experiment: In vitro microtubule assembly; assay type: biochemical; conditions: both drugs at similar concentrations
[5] = test system: calf brain macromolecular components; experiment: Control irradiation of calf brain homogenate with ^3 H-vinblastine; assay type: binding; conditions: standard photolabelling conditions; 50 nM ^3 H-vinblastine
Experimental: The standard photolabelling mixture used contained 50 nM ^3 H-NABV (50.6 Ci/mmol), 4% dimethylsulfoxide, […] potassium phosphate buffer, pH 7.0, and 2 mg/ml of tissue homogenate or high speed pellet or supernatant fractions in a final volume of 0.05 ml in polyvinylchloride V-microtiter wells (Dynatech Labs, Inc., Alexandria, VA) in a 25° C. water bath. Photolabelling mixtures were incubated for 15 minutes at 25° C. before photolysis. Photoactivation was performed for 10-20 minutes with a UV light equipped with two 15 W self-filtering 302 nm lamps (Model xx-15, Ultra-Violet Products, Inc., San Gabriel, CA), placed 3.4 cm above the photolabelling mixture. […] In a control experiment, brain homogenate was irradiated in the presence of 50 nM ^3 H-vinblastine (10.7 Ci/mmol; Amersham Corp., Arlington Heights, IL). Photoactivated samples were immediately processed for SDS-PAGE or frozen at -70° C.
When homogenate was incubated with ^3 H-NABV in the absence of UV light for 30 minutes, no radioactivity was found in subsequent SDS-PAGE gel slices above the ambient background level, except for excess 3H-NABV which migrated near the tracking dye front. Similar results were obtained after photoactivating ^3 H-NABV in the absence of brain homogenate which was then added prior to performing SDS-PAGE and gel slice analysis.

## CCC1(O)CC2CN(CCc3c([nH]c4ccccc34)C(C(=O)OC)(c3cc4c(cc3OC)N(C)C3C(O)(C(=O)NCCNC(=O)c5ccc(N=[N+]=[N-])cc5)C(O)C5(CC)C=CCN6CCC43C65)C2)C1 (stereo not drawn) [NABV, N-(p-azidobenzoyl)-N'-beta-aminoethylvindesine]
[1]
  pIC50: 8.96
P388 leukemic cells
  ultrastructural alterations (microtubular paracrystals, mitotic arrest, multinucleated cells): resembles those caused by vinblastine
[2]
  ultrastructural alterations (microtubular paracrystals, mitotic arrest, multinucleated cells): resembles those caused by vinblastine
Tubulin [3]
  effect on tubulin-dependent GTP hydrolysis: inhibit tubulin-dependent GTP hydrolysis
Tubulin [4]
  effect on tubulin aggregation: induce tubulin aggregation
microtubule
  effect on in vitro microtubule assembly: inhibit in vitro microtubule assembly

## CC[C@]1(O)C[C@@H]2CN(CCc3c([nH]c4ccccc34)[C@@](C(=O)OC)(c3cc4c(cc3OC)N(C)[C@H]3[C@@](O)(C(=O)OC)[C@H](OC(C)=O)[C@]5(CC)C=CCN6CC[C@]43[C@@H]65)C2)C1 [^3 H-vinblastine]
[5]
  radiolabel incorporation into calf brain macromolecular components: no radiolabel incorporation
